Laboratory results as given in patent US11643396B2, “BRD4-kinase inhibitors as cancer therapeutics” (H. LEE MOFFITT CANCER CENTER AND RESEARCH INSTITUTE, INC., priority 2015, dated 2023).
Where “and” joins values, the source holds several entries; their conditions need not be identical. Equal values may be shown once. Read-outs that look alike come from different tables or passages of the source.

Legend:
MM.1S cells = assay: Cellular IC50 (cell survival, MTT), MM.1S; type: cell-based
Source text: Increased anti-proliferative effects are correlated with an early, strong reduction of both pSTAT2 and c-Myc levels. The inhibitors highlighted are the most promising equipotent dual BET-JAK2 inhibitors of this series.

BRD4 = BRD4 (Homo sapiens (Human), UniProt O60885); assay: Differential Scanning Fluorimetry (DSF), stability of BRD4 upon ligand binding; details: for DSF ΔTm / IC50: Table 1; for IC50: estimated from DSF; for DSF: BRD4 ΔTm: 100 μM protein, 4 μM compound and 2% DMSO, Table 4
Solubility in PBS buffer = type: physicochemical
UKE-1 = assay: Cellular IC50, UKE-1; type: cell-based; details: UKE1
MV4-11 AML cells [1] = assay: Cellular IC50, MV-4-11; type: cell-based; details: Homo sapiens
Experimental: Cellular activity of promising compounds is assessed using MM.1S and MV4-11 AML cells using c-Myc levels as biomarker (6-12 hr treatment) and antiproliferative activity (48-72 hr treatment) as described (Ciceri et al., Dual kinase-bromodomain inhibitors for rationally designed polypharmacology. Nat Chem Biol 2014).

Saos-2 = assay: Cellular IC50, Saos-2; type: cell-based; details: Homo sapiens
MV4-11 AML cells [2] = details: literature; read-out: IC50, inhibition of proliferation of MV4-11 AML cells; cited from earlier work
c-Myc = details: literature; cited from earlier work
HEK293 = assay: Cellular IC50, HEK293; type: cell-based; details: Homo sapiens
JAK2 = JAK2 (Homo sapiens (Human), UniProt O60674); assay: HotSpot Kinase assay (Reaction Biology); type: biochemical; details: Reaction Biology data
Chain of JAK2 (O60674 whole entry): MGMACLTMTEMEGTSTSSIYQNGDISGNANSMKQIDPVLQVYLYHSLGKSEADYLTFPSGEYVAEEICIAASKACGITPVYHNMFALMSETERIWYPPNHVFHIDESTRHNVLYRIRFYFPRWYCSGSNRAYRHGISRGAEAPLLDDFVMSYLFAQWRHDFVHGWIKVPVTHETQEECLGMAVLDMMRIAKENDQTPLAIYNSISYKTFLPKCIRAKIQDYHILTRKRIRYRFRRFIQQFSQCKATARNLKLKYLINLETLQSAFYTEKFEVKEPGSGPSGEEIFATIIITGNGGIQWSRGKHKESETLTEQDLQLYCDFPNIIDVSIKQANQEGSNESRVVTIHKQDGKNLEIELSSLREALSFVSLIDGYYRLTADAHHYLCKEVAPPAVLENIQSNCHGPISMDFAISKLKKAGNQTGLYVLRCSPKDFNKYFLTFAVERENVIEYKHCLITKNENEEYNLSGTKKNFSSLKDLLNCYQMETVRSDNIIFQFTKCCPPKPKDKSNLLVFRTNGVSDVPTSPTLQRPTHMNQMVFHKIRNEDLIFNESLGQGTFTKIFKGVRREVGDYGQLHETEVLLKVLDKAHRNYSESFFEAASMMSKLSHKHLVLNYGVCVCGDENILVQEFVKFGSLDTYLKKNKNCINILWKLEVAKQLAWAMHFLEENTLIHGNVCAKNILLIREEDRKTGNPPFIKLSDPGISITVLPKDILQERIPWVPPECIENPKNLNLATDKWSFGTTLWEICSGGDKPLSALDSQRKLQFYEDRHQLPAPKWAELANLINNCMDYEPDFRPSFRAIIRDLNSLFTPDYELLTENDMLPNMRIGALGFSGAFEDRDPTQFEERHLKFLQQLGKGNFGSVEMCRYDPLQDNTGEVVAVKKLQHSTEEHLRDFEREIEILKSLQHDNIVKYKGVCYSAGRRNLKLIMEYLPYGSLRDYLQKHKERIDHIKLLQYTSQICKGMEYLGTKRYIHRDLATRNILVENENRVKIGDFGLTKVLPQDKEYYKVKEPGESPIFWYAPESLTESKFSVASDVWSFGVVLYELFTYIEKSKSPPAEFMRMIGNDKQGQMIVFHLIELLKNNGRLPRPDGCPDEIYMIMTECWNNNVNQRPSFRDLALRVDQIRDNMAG

BRD4-2 = BRD4-2 (Homo sapiens (Human), UniProt O60885); assay: Alpha Screen (Reaction Biology); type: binding; details: Reaction Biology data; value in parentheses
BRD4-1 = BRD4-1 (Homo sapiens (Human), UniProt O60885); assay: Alpha Screen (Reaction Biology); type: binding; details: Reaction Biology data
BRDT-1 = BRDT-1 (Homo sapiens (Human), UniProt Q58F21); assay: Alpha Screen (Reaction Biology); type: binding; details: Reaction Biology data
[3] = Homo sapiens, MM1.S, read-out: Cellular IC50 MM.1S

Q: What does the source list for `Cc1cnc(Nc2ccc(N3CCN(C)CC3)c(F)c2)nc1Nc1cccc(NS(=O)(=O)C(C)(C)C)c1` [drawing 167]?
A: IC50 (MM.1S cells; read-out: MM.1S IC50): 146 nM; DSF ΔTm (BRD4): 11.2 ± 0.15 °C

Q: With `Cc1cnc(Nc2ccc(N3CCN(C)CC3)cc2)nc1Nc1ccc(Cl)c(NS(=O)(=O)C(C)(C)C)c1` [SG3-014B2.MSA] as the molecule, how does the Solubility (Solubility in PBS buffer; in 1 mL PBS buffer (15% HPCD)) read?
A: > 14.4 mg/mL

Q: What about the Solubility (Solubility in PBS buffer; in 1 mL PBS buffer (~9.3% DMSO)) of the same molecule?
A: 0.416 mg

Q: Which results are given for `CCCN(C)c1ccc(Nc2nc3c(c(Nc4cccc(S(N)(=O)=O)c4)n2)COC3)cc1`?
A: DSF ΔTm (BRD4): 2.9 ± 0.084 °C; IC50 (BRD4): 2300 nM

Q: Which IC50 (UKE-1) does the source give for `Cc1cnc(Nc2ccc(N3CCN(C)CC3)c(F)c2)nc1Nc1cccc(NS(=O)(=O)C(C)(C)C)c1` [drawing 231] here?
A: 200 nM

Q: What about the IC50 (MM.1S cells; [3]) of the same molecule?
A: 146 nM

Q: And the “DSF: BRD4 ΔTm” value (BRD4)?
A: 11.2 ± 0.15 °C

Q: And the IC50 (MV4-11 AML cells [1])?
A: 26.8 nM

Q: And the IC50 (Saos-2)?
A: 133 nM

Q: For `Cc1cnc(Nc2ccc(OCCN3CCCC3)cc2)nc1Nc1cccc(S(=O)(=O)NC(C)(C)C)c1` [TG101348], which IC50 (MV4-11 AML cells [2]) is on record?
A: 79 nM

Q: What about the “downregulation of c-Myc in MM.1S cells” value (c-Myc) of the same molecule?
A: strong downregulation of c-Myc

Q: For `CC[C@@H]1C(=O)N(C)c2cnc(Nc3ccc(C(=O)NC4CCN(C)CC4)cc3OC)nc2N1C1CCCC1` [BI2536], which “downregulation of c-Myc in MM.1S cells” value (c-Myc) is on record?
A: strong downregulation of c-Myc

Q: For `Cc1nc(Nc2ccc(N3CCN(C)CC3)cc2)nc(Nc2cccc(S(=O)(=O)NC(C)C)c2)c1C`, which IC50 (HEK293) is on record?
A: 120000 nM

Q: What about the “DSF ΔTm” value (BRD4) of the same molecule?
A: 5.3 ± 0.064 °C

Q: And the IC50 (BRD4)?
A: 370 nM

Q: What does the source list for `Cc1cnc(Nc2ccc(N3CCN(C)CC3)c(F)c2)nc1Nc1ccc(Cl)c(NS(=O)(=O)C(C)(C)C)c1` [drawing 168]?
A: IC50 (MM.1S cells; read-out: MM.1S IC50): 64 nM and 66 nM; DSF ΔTm (BRD4): 12.6 ± 0.069 °C

Q: With `Cc1cnc(Nc2ccc(N3CCN(C)CC3)cc2)nc1Nc1cccc(S(=O)(=O)NC(C)(C)C)c1` [TG101209, reference compound] as the molecule, how does the “downregulation of c-Myc in MM.1S cells” value (c-Myc) read?
A: strong downregulation of c-Myc

Q: What about the “DSF ΔTm” value (BRD4) of the same molecule?
A: 6.83 ± 0.129 °C and 7.55 ± 0.154 °C

Q: Which IC50 (BRD4) does the source give for `CCOC(=O)c1cnc(Nc2ccc(N3CCN(C)CC3)cc2)nc1Nc1cccc(S(=O)(=O)NC(C)(C)C)c1` here?
A: > 20000 nM

Q: Which results are given for `Cc1cnc(Nc2ccc(N3CCN(C)CC3)c(F)c2)nc1Nc1ccc(Cl)c(NS(=O)(=O)C(C)(C)C)c1` [drawing 230]?
A: IC50 (JAK2): 3.36 nM; IC50 (UKE-1): 294 nM; IC50 (MM.1S cells; [3]): 66 nM; DSF: BRD4 ΔTm (BRD4): 12.6 ± 0.06 °C; IC50 (MV4-11 AML cells [1]): 53.2 nM; IC50 (Saos-2): 320 nM

Q: With `Cc1cnc(Nc2ccc(N3CCN(C)CC3)cc2)nc1Nc1cccc(NS(=O)(=O)C(C)(C)C)c1` as the molecule, how does the IC50 (BRD4-2) read?
A: 23.6 nM

Q: What about the IC50 (MM.1S cells; [3]) of the same molecule?
A: 399 nM

Q: What about the IC50 (MV4-11 AML cells [1]) of the same molecule?
A: 56.7 nM

Q: For `Cc1cnc(Nc2ccc(N3CCN(C)CC3)cc2)nc1Nc1ccc(Cl)c(NS(=O)(=O)C(C)(C)C)c1` [drawing 232], which IC50 (BRD4-1) is on record?
A: 25 nM

Q: And the IC50 (BRD4-2)?
A: 27.3 nM

Q: And the IC50 (MM.1S cells; [3])?
A: 142 nM

Q: Which IC50 (BRD4-1) does the source give for `Cc1cnc(Nc2ccc(C(=O)NC3CCN(C)CC3)c(F)c2)nc1Nc1ccc(Cl)c(NS(=O)(=O)C(C)(C)C)c1` here?
A: 9.55 nM

Q: And the IC50 (BRDT-1)?
A: 22.5 nM

Q: And the IC50 (UKE-1)?
A: 225 nM

Q: What about the IC50 (MV4-11 AML cells [1]) of the same molecule?
A: 38.3 nM

Q: For `Cc1cnc(Nc2ccc(N3CCN(C)CC3)cc2)nc1Nc1ccc(Cl)c(NS(=O)(=O)C(C)(C)C)c1` [drawing 146], which IC50 (MM.1S cells; read-out: MM.1S IC50) is on record?
A: 142 nM
